ChEMBL document CHEMBL4699453, “Correlations between functional porphyrin positions and accumulation in cancer cells” (Bioorg Med Chem Lett, 2020)

Tests used:
[1] = molecular target: T1, Albumin (Bos taurus, UniProt P02769); assay: Binding affinity to bovine serum albumin assessed as Stem-Volmer quenching constant by fluorescence based Stern-Volmer plot analysis; settings: cattle
[2] = Drug uptake in human MCF7 cells at 10 uM incubated for 24 hrs by fluorescence based assay; format: ADME, cell-based; settings: mcf7, 24 h
[3] = Drug uptake in human MCF7 cells at 10 uM incubated for 2 hrs by fluorescence based assay; format: ADME, cell-based; settings: mcf7, 2 h
[4] = molecular target: T1, Albumin; assay: Binding affinity to bovine serum albumin assessed as binding constant by fluorescence based Stern-Volmer plot analysis; settings: cattle

T1 sequence (P02769 whole entry): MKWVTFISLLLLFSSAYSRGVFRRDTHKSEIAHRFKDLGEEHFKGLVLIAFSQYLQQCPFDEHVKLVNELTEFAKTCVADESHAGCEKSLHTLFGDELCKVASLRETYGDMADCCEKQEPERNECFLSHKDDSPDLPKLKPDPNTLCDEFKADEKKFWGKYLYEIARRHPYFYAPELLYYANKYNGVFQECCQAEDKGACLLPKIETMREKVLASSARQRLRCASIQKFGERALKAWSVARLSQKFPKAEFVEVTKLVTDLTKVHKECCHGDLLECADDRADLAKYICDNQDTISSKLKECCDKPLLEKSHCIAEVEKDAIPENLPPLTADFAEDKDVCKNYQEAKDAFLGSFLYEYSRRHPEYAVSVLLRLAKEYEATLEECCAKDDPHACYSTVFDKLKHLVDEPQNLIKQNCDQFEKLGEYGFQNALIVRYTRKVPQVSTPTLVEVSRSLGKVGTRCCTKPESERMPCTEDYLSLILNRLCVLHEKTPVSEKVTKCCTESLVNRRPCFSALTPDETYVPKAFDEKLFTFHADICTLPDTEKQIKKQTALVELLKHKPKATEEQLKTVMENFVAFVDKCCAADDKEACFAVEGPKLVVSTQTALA

| KSV [1] | Drug uptake [2] | Drug uptake [3] | Ka [4] | SMILES |
| --- | --- | --- | --- | --- |
| 4.96 10^4L/mol | 5.8 10^-2microM | 5.8 10^-2microM | 3.84 10^4L/mol | CC(=O)Nc1ccc(-c2c3nc(c(-c4ccccc4)c4ccc([nH]4)c(-c4ccccc4)c4nc(c(-c5ccccc5)c5ccc2[nH]5)C=C4)C=C3)cc1 |
| 4.09 10^4L/mol | 4.4 10^-2microM | 3 10^-2microM | 3.12 10^4L/mol | CCCCCCCCCCCCCCCC(=O)Nc1ccc(-c2c3nc(c(-c4ccccc4)c4ccc([nH]4)c(-c4ccccc4)c4nc(c(-c5ccccc5)c5ccc2[nH]5)C=C4)C=C3)cc1 |
| 4.33 10^4L/mol | 4.3 10^-2microM | 3.3 10^-2microM | 2.86 10^4L/mol | CC(=O)NC1=Cc2nc1c(-c1ccccc1)c1ccc([nH]1)c(-c1ccccc1)c1nc(c(-c3ccccc3)c3ccc([nH]3)c2-c2ccccc2)C=C1 |
| 3.03 10^4L/mol | 1.7 10^-2microM | 1.7 10^-2microM | 1.98 10^4L/mol | CCCCCCCCCCCCCCCC(=O)NC1=Cc2nc1c(-c1ccccc1)c1ccc([nH]1)c(-c1ccccc1)c1nc(c(-c3ccccc3)c3ccc([nH]3)c2-c2ccccc2)C=C1 |
